Literature values in patent US12295729B2, “Apparatus and method for delivery of antimicrobial during a transdermal sampling and delivery process” (Georgetown University, priority 2015, dated 2025).

Legend:
[1] = tested on: Achromobacter xylosoxidans
[2] = tested on: Aggregatibacter actinomycetemcomitans
[3] = tested on: Burkholderia pseudomallei
[4] = tested on: Burkholderia thailandensis
[5] = tested on: Porphyromonas circumdentaria
[6] = tested on: Prevotella melaninogenica
[7] = tested on: Stenotrophomonas maltophilia

Measured: bacteria killing ability

LL-37 (LLGDFFRKSKEKIGKEFKRIVQRIKDFLRNLVPRTES; Antibacterial peptide LL-37; UniProt P49913 134-170, looked up) [antimicrobial peptide; the factotum human cathelicidin peptide]
kill: Bacillus anthracis | Enterococcus faecalis | Group A streptococcus | Group B Streptococcus | Lactobacillus casei | Listeria monocytogenes | Micrococcus luteus | Nocardia sp. | Propionibacterium acnes | Staphylococcus aureus | Streptococcus mutans | Streptococcus pneumonia | Borrelia spp. | Mycobacterium bovis | Mycobacterium smegmatis | [1] | Acinetobacter baumannii | [2] | Brucella suis | [3] | Burkholderia cepacia | [4] | Capnocytophaga spp. | Escherichia coli | Francisella novicida | Fusobacterium nucleatum | Haemophilus influenza | Helicobacter pylori | Klebsiella pneumonia | Leptospira interrogans | Mannheimia haemolytica | Pasteurella multocida | [5] | Porphyromonas gingivalis | Prevotella intermedia | Prevotella loescheii | [6] | Pseudomonas aeruginosa | Salmonella sp. | Shigella sp. | [7] | Tannerella forsythia | Treponema denticola | Treponema pallidum | Yersinia pestis
